# Measured values: US20030055107A1, “Forms of pharmaceutically active agents and method for manufacture thereof” (priority 2001, published 2003)
# Experiments:
# [1] = Dynamic Vapor Sorption Moisture Balance, relative weight gain due to moisture pickup; format: physicochemical; conditions: for critical humidity: cycled between 0% RH to 95% RH to 0% RH over 48 hours at 25° C.
# Protocol: Samples were cycled between 0% RH to 95% RH to 0% RH over 48 hours at 25° C. […] At 50% humidity, the relative weight gain due to moisture pickup was about 25% while at 70% humidity the relative weight gain was about 35%. […] At 50% humidity the relative weight gain due to moisture pickup was about 1.4% and at 70% humidity the weight gain was bout 2%.
# [2] = Dissolution of dried new form in water (observation); format: physicochemical; conditions: dried form with potassium cation placed in water
# Source text: The new ibuprofen form of the present invention dissociates into ibuprofen in its free acid form.
# [3] = cited from earlier work
smiles,measurement,setting,value
CC(C)Cc1ccc(C(C)C(=O)O)cc1.CC(C)Cc1ccc(C(C)C(=O)[O-])cc1.[K+] (stereo not shown) [new ibuprofen form],hygroscopicity compared to the potassium salt of ibuprofen,"[1]; 0-95% RH cycle, 25° C.",significantly less hygroscopic
same,physical change of sample during humidity cycling,"[1]; 0-95% RH cycle, 25° C.",No change in crystal appearance was observed
same,critical humidity,[1],about 30%
same,dissolution in water (in words),[2],readily dissolves in water
same,dissolution in water (in words),[2]; listed as ibuprofen form of the present invention wherein the cation is potassium,immediate dissolution
CO[C@@H]1[C@@H](OC(N)=O)[C@@H](O)[C@H](Oc2ccc3c(O)c(NC(=O)c4ccc(O)c(CC=C(C)C)c4)c(=O)oc3c2C)OC1(C)C [novobiocin],solubility of amorphous substance versus crystalline agent,"[3]; amorphous vs crystalline, Mullins and Macek 1960",ten times higher
"CC(C)Cc1ccc(C(C)C(=O)O)cc1 (racemic) [Ibuprofen, ibuprofen]",solubility in water,[3]; water,< 100 µg/mL
CC(C)Cc1ccc(C(C)C(=O)O)cc1.[K] (stereo not shown) [potassium ibuprofen],solubility (in words),[3]; background statement,highly soluble
same,physical change of sample during humidity cycling,"[1]; 0-95% RH cycle, 25° C.",the sample dissolved and formed a gel
same,critical humidity,[1],about 30%
